In US20250019387A1 (Frontier Medicines Corporation, priority 0001, published 2025):

Target: KRAS G12C and cRAF (Ras-binding domain) interaction (Homo sapiens (Human), UniProt P01116, C118S/C51S/C80L/G12C)
Assay: Inhibition of KRAS G12C and cRAF binding (AlphaScreen)
Conditions: GMPPNP-loaded KRAS G12C, 19-20 hours incubation with compound; read-out: IC50 (Inhibition of KRAS G12C and cRAF Binding)
Procedure, shortened: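 Compounds (DMSO) preincubated 19-20 h at room temperature, then RBD with streptavidin donor and glutathione acceptor beads added in 25 mM Hepes pH 7.4, 150 mM NaCl, 5 mM MgCl2, 0.01% Triton X-100, 2% DMSO for 60-90 min. Emission 570 nm (excitation 680 nm); IC50 by 4-parameter fit. Counter-screen used biotin-AviTag-GST instead of RBD.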

Chain of KRAS G12C and cRAF (Ras-binding domain) interaction (P01116 other isoform, or with tags, fused parts or gaps G12C/C51S/C80L/C118S): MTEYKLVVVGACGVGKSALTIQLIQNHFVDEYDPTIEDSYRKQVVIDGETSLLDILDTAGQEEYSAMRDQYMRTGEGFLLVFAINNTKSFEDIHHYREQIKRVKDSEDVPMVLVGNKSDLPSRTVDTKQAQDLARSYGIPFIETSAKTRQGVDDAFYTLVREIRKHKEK

Question: `Cc1nccc(/C=C/C(=O)N2CCC[C@H](N(C)c3nc(OC[C@@]45CCCN4C[C@H](F)C5)nc4c(F)c(-c5cccc6cccc(Cl)c56)ncc34)C2)n1` [Example 260, (E)-1-((S)-3-((7-(8-chloronaphthalen-1-yl)-8-fluoro-2-(((2R,7aS)-2-fluorotetrahydro-1H-pyrrolizin-7a(5H)-yl)methoxy)pyrido[4,3-d]pyrimidin-4-yl)(methyl)amino)piperidin-1-yl)-3-(2-methylpyrimidin-4-yl)prop-2-en-1-one] was tested. Which IC50 did it give?
Answer: The IC50 was 100 to 500 nM.

Question: `C=CC(=O)N1C[C@H](F)[C@@H](N(C)c2nc(OC[C@@]34CCCN3C[C@H](F)C4)nc3c(F)c(-c4cccc5cccc(Cl)c45)ncc23)C1` [Example 73, 1-((3S,4S)-3-((7-(8-chloronaphthalen-1-yl)-8-fluoro-2-(((2R,7aS)-2-fluorohexahydro-1H-pyrrolizin-7a-yl)methoxy)pyrido[4,3-d]pyrimidin-4-yl)(methyl)amino)-4-fluoropyrrolidin-1-yl)prop-2-en-1-one] was tested. Which IC50 did it give?
Answer: Its IC50 is 10 to 100 nM.

Question: For `CCc1c(F)ccc2cccc(-c3ncc4c(N(C)CC5CN(C(=O)/C=C/c6cc(C)nc(C)n6)C5)nc(OC[C@@]56CCCN5C[C@H](F)C6)nc4c3F)c12` [Example 283, (E)-3-(2,6-dimethylpyrimidin-4-yl)-1-(3-(((7-(8-ethyl-7-fluoronaphthalen-1-yl)-8-fluoro-2-(((2R,7aS)-2-fluorotetrahydro-1H-pyrrolizin-7a(5H)-yl)methoxy)pyrido[4,3-d]pyrimidin-4-yl)(methyl)amino)methyl)azetidin-1-yl)prop-2-en-1-one], which IC50 is on record?
Answer: Its IC50 is 100 to 500 nM.

Question: With `CCc1c(F)ccc2cccc(-c3ncc4c(N(C)[C@@H]5CCN(C(=O)/C=C/c6ccnc(C)n6)C5)nc(OC[C@@]56CCCN5C[C@H](F)C6)nc4c3F)c12` [Example 277, (E)-1-((R)-3-((7-(8-ethyl-7-fluoronaphthalen-1-yl)-8-fluoro-2-(((2R,7aS)-2-fluorohexahydro-1H-pyrrolizin-7a-yl)methoxy)pyrido[4,3-d]pyrimidin-4-yl)(methyl)amino)pyrrolidin-1-yl)-3-(2-methylpyrimidin-4-yl)prop-2-en-1-one] as the compound, how does the IC50 read?
Answer: The IC50 was 100 to 500 nM.

Question: Which IC50 does the source give for `CN1CCC[C@H]1COc1nc2c(c(N(C)[C@@H]3CCN(C(=O)/C=C/S(C)(=O)=O)C3)n1)CCN(c1cccc3cccc(Cl)c13)C2` [Example 9, (E)-1-((R)-3-((7-(8-chloronaphthalen-1-yl)-2-(((S)-1-methylpyrrolidin-2-yl)methoxy)-5,6,7,8-tetrahydropyrido[3,4-d]pyrimidin-4-yl)(methyl)amino)pyrrolidin-1-yl)-3-(methylsulfonyl)prop-2-en-1-one] here?
Answer: Its IC50 is under 10 nM.

Question: With `C#Cc1c(F)ccc2cccc(-c3ncc4c(N(C)[C@@H]5CCN(C(=O)/C=C/[C@H]6CCN6C)C5)nc(OC[C@@]56CCCN5C[C@H](F)C6)nc4c3F)c12` [Example 200, (E)-1-((R)-3-((7-(8-ethynyl-7-fluoronaphthalen-1-yl)-8-fluoro-2-(((2R,7aS)-2-fluorohexahydro-1H-pyrrolizin-7a-yl)methoxy)pyrido[4,3-d]pyrimidin-4-yl)(methyl)amino)pyrrolidin-1-yl)-3-((R)-1-methylazetidin-2-yl)prop-2-en-1-one] as the compound, how does the IC50 read?
Answer: The IC50 was under 10 nM.

Question: For `CN(c1nc(OC[C@@]23CCCN2C[C@H](F)C3)nc2c(F)c(-c3cccc4cccc(Cl)c34)ncc12)[C@@H]1CCN(C(=O)/C=C/c2nc(C(F)F)no2)C1` [Example 157, (E)-1-((R)-3-((7-(8-chloronaphthalen-1-yl)-8-fluoro-2-(((2R,7aS)-2-fluorotetrahydro-1H-pyrrolizin-7a(5H)-yl)methoxy)pyrido[4,3-d]pyrimidin-4-yl)(methyl)amino)pyrrolidin-1-yl)-3-(3-(difluoromethyl)-1,2,4-oxadiazol-5-yl)prop-2-en-1-one], which IC50 is on record?
Answer: Its IC50 is under 10 nM.

Question: How did the IC50 turn out when `CN(c1nc(OC[C@@]23CCCN2C[C@H](F)C3)nc2c(F)c(-c3cccc4ccc(F)c(Cl)c34)ncc12)[C@@H]1CCN(C(=O)/C=C/c2nc(C(C)(C)O)no2)C1` [Example 88, (E)-1-((R)-3-((7-(8-chloro-7-fluoronaphthalen-1-yl)-8-fluoro-2-(((2R,7aS)-2-fluorotetrahydro-1H-pyrrolizin-7a(5H)-yl)methoxy)pyrido[4,3-d]pyrimidin-4-yl)(methyl)amino)pyrrolidin-1-yl)-3-(3-(2-hydroxypropan-2-yl)-1,2,4-oxadiazol-5-yl)prop-2-en-1-one] was run?
Answer: Its IC50 is under 10 nM.

Question: How did the IC50 turn out when `CN(CC1CN(C(=O)/C=C/CN2CCOCC2)C1)c1nc(OC[C@@]23CCCN2C[C@H](F)C3)nc2c(F)c(-c3cccc4cccc(Cl)c34)ncc12` [Example 89, (E)-1-(3-(((7-(8-chloronaphthalen-1-yl)-8-fluoro-2-(((2R,7aS)-2-fluorotetrahydro-1H-pyrrolizin-7a(5H)-yl)methoxy)pyrido[4,3-d]pyrimidin-4-yl)(methyl)amino)methyl)azetidin-1-yl)-4-morpholinobut-2-en-1-one] was run?
Answer: Its IC50 is 10 to 100 nM.

Question: For `Cc1cc(/C=C/C(=O)N2CC[C@@H](N(C)c3nc(OC[C@@]45CCCN4C[C@H](F)C5)nc4c(F)c(-c5cccc6ccc(F)c(F)c56)ncc34)C2)nc(C)n1` [Example 203, (E)-1-((R)-3-((7-(7,8-difluoronaphthalen-1-yl)-8-fluoro-2-(((2R,7aS)-2-fluorohexahydro-1H-pyrrolizin-7a-yl)methoxy)pyrido[4,3-d]pyrimidin-4-yl)(methyl)amino)pyrrolidin-1-yl)-3-(2,6-dimethylpyrimidin-4-yl)prop-2-en-1-one], which IC50 is on record?
Answer: Its IC50 is 10 to 100 nM.

Question: Which IC50 does the source give for `C=CC(=O)N1CC[C@@H](N(C)c2nc(OC[C@]34CCCN3C[C@@H](F)C4)nc3c(F)c(-c4cccc5ccc(F)c(Cl)c45)ncc23)C1` [Example 151, 1-((R)-3-((7-(8-chloro-7-fluoronaphthalen-1-yl)-8-fluoro-2-(((2S,7aR)-2-fluorohexahydro-1H-pyrrolizin-7a-yl)methoxy)pyrido[4,3-d]pyrimidin-4-yl)(methyl)amino)pyrrolidin-1-yl)prop-2-en-1-one] here?
Answer: The IC50 was over 500 nM.

Question: Which IC50 does the source give for `Cc1cc(/C=C/C(=O)N2CC[C@@H](N(C)c3nc(OC[C@@]45CCCN4C[C@H](F)C5)nc4c(F)c(-c5cccc6ccc(F)c(Cl)c56)ncc34)C2)nc(C)n1` [Example 272, (E)-1-((R)-3-((7-(8-chloro-7-fluoronaphthalen-1-yl)-8-fluoro-2-(((2R,7aS)-2-fluorotetrahydro-1H-pyrrolizin-7a(5H)-yl)methoxy)pyrido[4,3-d]pyrimidin-4-yl)(methyl)amino)pyrrolidin-1-yl)-3-(2,6-dimethylpyrimidin-4-yl)prop-2-en-1-one] here?
Answer: The IC50 was 10 to 100 nM.

Question: How did the IC50 turn out when `CN(c1nc(OCC23CCCN2CCC3)nc2c(F)c(-c3cccc4ccc(F)c(Cl)c34)ncc12)[C@@H]1CCN(C(=O)/C=C/c2nc(C(C)(C)O)no2)C1` [Example 61, (R,E)-1-(3-((7-(8-chloro-7-fluoronaphthalen-1-yl)-8-fluoro-2-((hexahydro-1H-pyrrolizin-7a-yl)methoxy)pyrido[4,3-d]pyrimidin-4-yl)(methyl)amino)pyrrolidin-1-yl)-3-(3-(2-hydroxypropan-2-yl)-1,2,4-oxadiazol-5-yl)prop-2-en-1-one] was run?
Answer: The IC50 was 10 to 100 nM.

Question: For `C=CS(=O)(=O)[C@H]1C[C@H](N(C)c2nc(OC[C@@H]3CCCN3C)nc3c2CCN(c2cccc4cccc(Cl)c24)C3)C1` [Example 48, 7-(8-chloronaphthalen-1-yl)-N-methyl-2-(((S)-1-methylpyrrolidin-2-yl)methoxy)-N-((1r,3S)-3-(vinylsulfonyl)cyclobutyl)-5,6,7,8-tetrahydropyrido[3,4-d]pyrimidin-4-amine], which IC50 is on record?
Answer: The IC50 was 100 to 500 nM.

Question: Which IC50 does the source give for `COC(=O)/C=C/C(=O)N1C[C@H](N(C)c2nc(OC[C@@H]3CCCN3C)nc3c2CCN(c2cccc4cccc(Cl)c24)C3)C[C@H]1C` [Example 17, methyl(E)-4-((2R,4R)-4-((7-(8-chloronaphthalen-1-yl)-2-(((S)-1-methylpyrrolidin-2-yl)methoxy)-5,6,7,8-tetrahydropyrido[3,4-d]pyrimidin-4-yl)(methyl)amino)-2-methylpyrrolidin-1-yl)-4-oxobut-2-enoate] here?
Answer: Its IC50 is 10 to 100 nM.

Question: How did the IC50 turn out when `C[C@@H]1C[C@@H](N(C)c2nc(OC[C@@H]3CCCN3C)nc3c2CCN(c2cccc4cccc(Cl)c24)C3)CN1C#N` [Example 38, (2R,4R)-4-((7-(8-chloronaphthalen-1-yl)-2-(((S)-1-methylpyrrolidin-2-yl)methoxy)-5,6,7,8-tetrahydropyrido[3,4-d]pyrimidin-4-yl)(methyl)amino)-2-methylpyrrolidine-1-carbonitrile] was run?
Answer: Its IC50 is over 500 nM.

Same assay, conditions: additional exemplary compounds; KRAS G12C and cRAF binding; read-out: RAF1 RBD IC50

Question: `C=CC(=O)N1CC(CNc2nc(OC[C@@]34CCCN3C[C@H](F)C4)nc3c2CCN(c2cccc4cccc(Cl)c24)C3)C1` was tested. Which IC50 did it give?
Answer: Its IC50 is over 500 nM.

Question: `CN1CCC[C@H]1COc1nc(N(C)[C@@H]2CCN(C#N)C2)c2cnc(-c3cccc4ccc(F)c(Cl)c34)c(F)c2n1` was tested. Which IC50 did it give?
Answer: Its IC50 is 100 to 500 nM.

Question: How did the IC50 turn out when `C=CC(=O)N1CC[C@@H](C)[C@@H](Nc2nc(OC[C@@]34CCCN3C[C@H](F)C4)nc3c(F)c(-c4cccc5cccc(Cl)c45)ncc23)C1` was run?
Answer: The IC50 was over 500 nM.

Question: `Cc1nccc(/C=C/C(=O)N2C[C@@H]3CN(c4nc(OC[C@@]56CCCN5C[C@H](F)C6)nc5c(F)c(-c6cccc7cccc(Cl)c67)ncc45)C[C@@H]3C2)n1` was tested. Which IC50 did it give?
Answer: The IC50 was over 500 nM.

Question: With `C=CC(=O)N1C[C@@H](N(C)c2nc(OC[C@@]34CCCN3C[C@H](F)C4)nc3c2CCN(c2cccc4cccc(Cl)c24)C3)C[C@@H]1CC#N` as the compound, how does the IC50 read?
Answer: The IC50 was over 500 nM.

Question: With `C=CC(=O)N1C[C@H](N(C)c2nc(OCC34CCCN3CCC4)nc3c2CCN(c2cccc4cccc(Cl)c24)C3)C[C@H]1CC#N` as the compound, how does the IC50 read?
Answer: Its IC50 is over 500 nM.

Question: `C=CC(=O)N1CCCC1CNc1nc(OC[C@@]23CCCN2C[C@H](F)C3)nc2c(F)c(-c3cccc4cccc(Cl)c34)ncc12` (some centres unmarked) was tested. Which IC50 did it give?
Answer: Its IC50 is over 500 nM.

Question: Which IC50 does the source give for `C=CC(=O)N1CC(CNc2nc(OC[C@@]34CCCN3C[C@H](F)C4)nc3c(F)c(-c4cccc5cccc(Cl)c45)ncc23)C1` here?
Answer: Its IC50 is 100 to 500 nM.

Question: With `CN(CCS(=O)(=O)/C=C/CN1CCC(F)(F)C1)c1nc(OCC23CCCN2CCC3)nc2c1CCN(c1cccc3cccc(Cl)c13)C2` as the compound, how does the IC50 read?
Answer: The IC50 was over 500 nM.

Question: With `C=CC(=O)N1CCC[C@@H](N(C)c2nc(OCC34CCCN3CCC4)nc3c2CCN(c2cccc4cccc(Cl)c24)C3)C1` as the compound, how does the IC50 read?
Answer: Its IC50 is over 500 nM.
